Laboratory results: US20230322767A1, “ARYL SUBSTITUTED PYRROLO-PYRIDINONES AND THERAPEUTIC USES THEREOF” (Bayer Aktiengesellschaft, priority 2020, published 2023)
Read-outs that look alike come from different tables or passages of the source.

What was measured:
Assay type in all cases: biochemical
[1] = target: wild-type Epidermal Growth Factor Receptor (EGFR) (Homo sapiens (Human), UniProt P00533); assay: WT-EGFR Kinase Assay (TR-FRET, 2 mM ATP)
Method in brief: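 GST-tagged human EGFR (R669–A1210, Sf9-expressed) preincubated 15 min at 22° C with compound in pH 7.0 Hepes/MgCl2 buffer, then reacted at 2 mM ATP with a biotinylated peptide substrate. Phosphorylation detected by TR-FRET (streptavidin-XL665, Tb-cryptate anti-phosphotyrosine) as the 665/620 nm emission ratio.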

CSNK1D = CSNK1D (Homo sapiens (Human), UniProt P48730); assay: CSNK1D Assay (ADP-Glo, 1 μM ATP); conditions: median, read-out: CSNK1D IC50 [mol/l] (median)
Method in brief: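 Enzyme preincubated with compound 15 min at 22° C in 50 mM HEPES pH 7.5 buffer with 10 mM MgCl2, 1 mM DTT; kinase reaction run at 1 μM ATP with biotinylated peptide substrate. ADP formed was detected by ADP-Glo luminescence as the measure of activity.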

CSNK1A1 = CSNK1A1 (Homo sapiens (Human), UniProt P48729); assay: CSNK1A1 Assay 2 (ADP-Glo, 1 μM ATP); conditions: median, read-out: CSNK1A1 Assay 2 IC50 [mol/l] (median)
Method in brief: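 Enzyme (~0.0375 ng/μL) preincubated 15 min at 22° C with compound in HEPES pH 7.5 buffer, then reacted with 1 μM ATP and biotin-Ahx-KRRRAL-pS-VASLPGL peptide. ADP product measured by ADP-Glo luminescence after 1 h ATP depletion and 1 h detection at 22° C.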

[2] = read-out: EGFR Wildtyp 2 mM ATP IC50 [mol/l] (median), median or individual measurements
[3] = EGFR Wildtyp 2 mM ATP IC50 [mol/l] (median), median or individual measurements

Sequence of CSNK1A1 (P48729 whole entry): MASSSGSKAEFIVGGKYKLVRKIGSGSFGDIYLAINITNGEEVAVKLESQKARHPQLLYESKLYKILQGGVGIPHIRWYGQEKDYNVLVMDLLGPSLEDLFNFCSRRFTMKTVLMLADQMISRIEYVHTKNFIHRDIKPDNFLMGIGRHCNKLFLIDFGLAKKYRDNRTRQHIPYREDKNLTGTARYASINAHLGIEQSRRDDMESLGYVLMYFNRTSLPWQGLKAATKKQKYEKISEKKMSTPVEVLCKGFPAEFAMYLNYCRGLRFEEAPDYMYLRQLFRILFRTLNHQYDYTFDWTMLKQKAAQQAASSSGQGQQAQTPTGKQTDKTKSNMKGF
Sequence of CSNK1D (P48730 whole entry): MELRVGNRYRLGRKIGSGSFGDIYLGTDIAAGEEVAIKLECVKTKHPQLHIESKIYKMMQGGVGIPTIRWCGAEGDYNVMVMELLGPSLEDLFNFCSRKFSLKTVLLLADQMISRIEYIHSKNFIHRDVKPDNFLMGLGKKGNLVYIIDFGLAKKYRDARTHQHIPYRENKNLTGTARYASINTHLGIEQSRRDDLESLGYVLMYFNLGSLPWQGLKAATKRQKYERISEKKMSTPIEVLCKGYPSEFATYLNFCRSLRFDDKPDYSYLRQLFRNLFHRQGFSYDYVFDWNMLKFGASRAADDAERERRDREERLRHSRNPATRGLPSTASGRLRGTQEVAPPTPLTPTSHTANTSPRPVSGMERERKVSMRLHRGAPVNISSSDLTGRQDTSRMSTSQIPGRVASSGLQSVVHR
Sequence of wild-type Epidermal Growth Factor Receptor (EGFR) (P00533 669-1210): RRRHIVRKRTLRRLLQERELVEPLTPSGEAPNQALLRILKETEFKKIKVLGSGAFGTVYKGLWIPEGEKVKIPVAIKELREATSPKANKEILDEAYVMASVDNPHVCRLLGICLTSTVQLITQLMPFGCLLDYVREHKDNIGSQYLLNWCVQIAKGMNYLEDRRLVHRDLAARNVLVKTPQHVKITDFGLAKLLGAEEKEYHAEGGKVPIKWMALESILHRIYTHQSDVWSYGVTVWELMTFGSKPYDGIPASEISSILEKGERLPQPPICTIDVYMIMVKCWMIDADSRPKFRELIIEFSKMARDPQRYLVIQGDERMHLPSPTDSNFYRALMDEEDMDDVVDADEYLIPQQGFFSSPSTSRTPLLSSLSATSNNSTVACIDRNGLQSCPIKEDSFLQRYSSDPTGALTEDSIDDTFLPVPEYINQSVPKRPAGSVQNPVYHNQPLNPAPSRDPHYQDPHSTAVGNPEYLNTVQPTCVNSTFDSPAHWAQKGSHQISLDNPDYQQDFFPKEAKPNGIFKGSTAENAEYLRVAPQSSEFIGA

Structure (SMILES) | IC50 [1, 2] [nM] | IC50 (CSNK1D) [nM] | IC50 (CSNK1A1) [nM] | IC50 [1, 3] [nM] | IC50 ([1]; read-out: EGFR Wildtyp 2 mM ATP IC50 [mol/l] (median), median or individual measurements, listed as 084) [nM]
Cn1cc(Cl)c2[nH]c(-c3ccnc(NC(=O)Cc4ccc(F)cc4)c3)c(-c3ccccc3)c2c1=O [Example 79, N-[4-(7-chloro-5-methyl-4-oxo-3-phenyl-4,5-dihydro-1H-pyrrolo[3,2-c]pyridin-2-yl)pyridin-2-yl]-2-(4-fluorophenyl)acetamide] | > 20000 | 4.8 | 5.1 |  | 
CC1(C)Cc2[nH]c(-c3ccnc(NC(=O)Cc4ccc(F)cc4)c3)c(-c3ccccc3)c2C(=O)N1 [Example 82, N-[4-(6,6-dimethyl-4-oxo-3-phenyl-4,5,6,7-tetrahydro-1H-pyrrolo[3,2-c]pyridin-2-yl)pyridin-2-yl]-2-(4-fluorophenyl)acetamide] | > 20000 | 2.4 | 1.3 |  | 
CC1(C)Cc2[nH]c(-c3ccnc(NC(=O)Cc4ccc(F)cc4)c3)c(-c3ccc(F)cc3)c2C(=O)N1 [Example 83, 2-(4-fluorophenyl)-N-{4-[3-(4-fluorophenyl)-6,6-dimethyl-4-oxo-4,5,6,7-tetrahydro-1H-pyrrolo[3,2-c]pyridin-2-yl]pyridin-2-yl}acetamide] | > 20000 | 3.5 | 1.9 |  | 
CC1(C)Cc2[nH]c(-c3ccnc(NC(=O)Cc4ccc(F)cc4)c3)c(-c3ccccc3F)c2C(=O)N1 [Example 84, 2-(4-fluorophenyl)-N-{4-[3-(2-fluorophenyl)-6,6-dimethyl-4-oxo-4,5,6,7-tetrahydro-1H-pyrrolo[3,2-c]pyridin-2-yl]pyridin-2-yl}acetamide] |  | 4.8 | 3.4 | > 20000 | 16000
CC1(C)Cc2[nH]c(-c3ccnc(NC(=O)Cc4ccc(F)cc4)c3)c(-c3cccc(F)c3)c2C(=O)N1 [Example 85, 2-(4-fluorophenyl)-N-{4-[3-(3-fluorophenyl)-6,6-dimethyl-4-oxo-4,5,6,7-tetrahydro-1H-pyrrolo[3,2-c]pyridin-2-yl]pyridin-2-yl}acetamide] | > 5710 | 3.9 | 1.9 |  | 
Cc1cccc(-c2c(-c3ccnc(NC(=O)Cc4ccc(F)cc4)c3)[nH]c3c2C(=O)NC(C)(C)C3)c1 [Example 86, N-{4-[6,6-dimethyl-3-(3-methylphenyl)-4-oxo-4,5,6,7-tetrahydro-1H-pyrrolo[3,2-c]pyridin-2-yl]pyridin-2-yl}-2-(4-fluorophenyl)acetamide] | > 20000 | 5.2 | 4 |  | 
CC(C(=O)Nc1cc(-c2[nH]c3c(c2-c2ccccc2F)C(=O)NC(C)(C)C3)ccn1)c1ccc(F)cc1 (stereo not shown) [Example 87, 2-(4-fluorophenyl)-N-{4-[3-(2-fluorophenyl)-6,6-dimethyl-4-oxo-4,5,6,7-tetrahydro-1H-pyrrolo[3,2-c]pyridin-2-yl]pyridin-2-yl}propanamide] | > 20000 | 13 | 12 |  | 
CC1(C)Cc2[nH]c(-c3ccnc(NC(=O)Cc4ccc(F)cc4)c3)c(-c3ccc(Cl)cc3)c2C(=O)N1 [Example 90, N-{4-[3-(4-chlorophenyl)-6,6-dimethyl-4-oxo-4,5,6,7-tetrahydro-1H-pyrrolo[3,2-c]pyridin-2-yl]pyridin-2-yl}-2-(4-fluorophenyl)acetamide] | > 20000 | 4.1 | 3.2 |  | 
Cc1ccc(-c2c(-c3ccnc(NC(=O)Cc4ccc(F)cc4)c3)[nH]c3c2C(=O)NC(C)(C)C3)cc1 [Example 92, N-{4-[6,6-dimethyl-3-(4-methylphenyl)-4-oxo-4,5,6,7-tetrahydro-1H-pyrrolo[3,2-c]pyridin-2-yl]pyridin-2-yl}-2-(4-fluorophenyl)acetamide] | > 20000 | 5.7 | 4.5 |  | 
CC1(C)Cc2[nH]c(-c3ccnc(NC(=O)Cc4ccc(F)cc4)c3)c(-c3cccnc3)c2C(=O)N1 [Example 93, N-{4-[6,6-dimethyl-4-oxo-3-(pyridin-3-yl)-4,5,6,7-tetrahydro-1H-pyrrolo[3,2-c]pyridin-2-yl]pyridin-2-yl}-2-(4-fluorophenyl)acetamide] | > 20000 | 9.3 | 4 |  | 
COCCNC(=O)c1ccc(CC(=O)Nc2cc(-c3[nH]c4c(c3-c3ccc(F)cc3)C(=O)N(C)CC4)ccn2)cc1 [Example 140, 4-[2-({4-[3-(4-fluorophenyl)-5-methyl-4-oxo-4,5,6,7-tetrahydro-1H-pyrrolo[3,2-c]pyridin-2-yl]pyridin-2-yl}amino)-2-oxoethyl]-N-(2-methoxyethyl)benzamide] | > 20000 | 1.8 | 1.6 |  | 
COCCN(C)C(=O)c1ccc(CC(=O)Nc2cc(-c3[nH]c4c(c3-c3ccc(F)cc3)C(=O)N(C)CC4)ccn2)cc1 [Example 141, 4-[2-({4-[3-(4-fluorophenyl)-5-methyl-4-oxo-4,5,6,7-tetrahydro-1H-pyrrolo[3,2-c]pyridin-2-yl]pyridin-2-yl}amino)-2-oxoethyl]-N-(2-methoxyethyl)-N-methylbenzamide] | > 20000 | 2.7 | 3.6 |  | 
COCCNC(=O)c1ccc(CC(=O)Nc2cc(-c3[nH]c4ccn(C)c(=O)c4c3-c3ccc(F)cc3)ccn2)cc1 [Example 142, 4-[2-({4-[3-(4-fluorophenyl)-5-methyl-4-oxo-4,5-dihydro-1H-pyrrolo[3,2-c]pyridin-2-yl]pyridin-2-yl}amino)-2-oxoethyl]-N-(2-methoxyethyl)benzamide] | > 20000 | 3.8 | 2.7 |  | 
COCCN(C)C(=O)c1ccc(CC(=O)Nc2cc(-c3[nH]c4ccn(C)c(=O)c4c3-c3ccc(F)cc3)ccn2)cc1 [Example 143, 4-[2-({4-[3-(4-fluorophenyl)-5-methyl-4-oxo-4,5-dihydro-1H-pyrrolo[3,2-c]pyridin-2-yl]pyridin-2-yl}amino)-2-oxoethyl]-N-(2-methoxyethyl)-N-methylbenzamide] | > 20000 | 2.7 | 4 |  | 
CN1CCc2[nH]c(-c3ccnc(NC(=O)Cc4ccc(C(=O)N5CCNCC5)cc4)c3)c(-c3ccc(F)cc3)c2C1=O [Example 144, N-{4-[3-(4-fluorophenyl)-5-methyl-4-oxo-4,5,6,7-tetrahydro-1H-pyrrolo[3,2-c]pyridin-2-yl]pyridin-2-yl}-2-[4-(piperazine-1-carbonyl)phenyl]acetamide] | 3620 | 3 | 2 |  | 
Cn1ccc2[nH]c(-c3ccnc(NC(=O)Cc4ccc(F)cc4)c3)c(-c3ccccn3)c2c1=O [Example 146, 2-(4-fluorophenyl)-N-{4-[5-methyl-4-oxo-3-(pyridin-2-yl)-4,5-dihydro-1H-pyrrolo[3,2-c]pyridin-2-yl]pyridin-2-yl}acetamide] | > 20000 | 4.4 | 3.3 |  | 
CC(C(=O)Nc1cc(-c2[nH]c3c(c2-c2ccccc2)C(=O)N(C)CC3)ccn1)c1ccncc1 (stereo not shown) [Example 154, N-[4-(5-methyl-4-oxo-3-phenyl-4,5,6,7-tetrahydro-1H-pyrrolo[3,2-c]pyridin-2-yl)pyridin-2-yl]-2-(pyridin-4-yl)propanamide] |  | 6 | 5.1 | > 20000 | 
O=C(Cc1ccc(F)cc1)Nc1cc(-c2[nH]c3ccn(C4CC4)c(=O)c3c2-c2ccccc2)ccn1 [Example 159, N-[4-(5-cyclopropyl-4-oxo-3-phenyl-4,5-dihydro-1H-pyrrolo[3,2-c]pyridin-2-yl)pyridin-2-yl]-2-(4-fluorophenyl)acetamide] | > 20000 | 1.6 | 0.96 |  | 
